Results published in PMC9241695, “Selective Metal Chelation by a Thiosemicarbazone Derivative Interferes with Mitochondrial Respiration and Ribosome Biogenesis in Candida albicans” (Microbiology Spectrum, 2022).
Values after ≈ are worked out from the molar mass of the structure shown. Read-outs that look alike come from different tables or passages of the source. One block for each compound: values may come before it.

Assays:
[1] = system: C. albicans Gu5; assay: microbe, parasite or virus in culture; type: cell-based; details: Candida albicans, GU5
Source text: (§1) Compound library. The thiosemicarbazone derivatives Triapine and COTI-2 were purchased from Med Chem Express (MCE). The other 87 thiosemicarbazones used in this study were previously synthesized by our collaborators (1, 2). Their structures are shown in Table 1 and Table S1 to help the reader clearly understand the relationship between structure and activity.
(§2) Strains and culture conditions. Clinically derived C. albicans isolates, including G5, F5, and Gu5, were kindly provided by Professor Joachim Morschhäuser of the University of Würzburg. Other clinical C. albicans isolates were kindly donated by Professor Qingguo Qi of Shandong University and Qianfoshan Hospital of Shandong Province Other Candida strains were obtained from Jinan Central Hospital.
(§3) The zap1 mutant and its complemented strain were kindly provided by Professor Aaron P. Mitchell of Carnegie Mellon University (3). The C. neoformans strains used in this study was kindly donated by Professor Guojian Liao of Southwest University and A. fumigatus strain used in this study was provided by Professor Ling Lu of Nanjing Normal University. Before in vitro and in vivo experiments, all C. albicans strains were grown on YPD agar plates. After culturing at 30°C for 24 h, colonies of each strain were cultured in liquid YPD medium at 30°C with continuous shaking […]
(§4) Antifungal susceptibility testing. To determine in vitro antifungal activities, the microbroth dilution method was carried out in RPMI1640 medium according to the guidelines of the Clinical and Laboratory Standards Institute (4, 5). The initial concentration in RPMI1640 medium was 1 × 10^3 CFU/mL for the C. albicans and C. neoformans suspensions but 1 × 10^4 CFU/mL for A. fumigatus. The range of final drug concentrations was 0.0156–64 μg/mL. The plates were incubated at35°C for 24 […]
(§5) h (for C. albicans, C. krusei, C. tropicalis, C. parapsilosis) or 48 h (for C. neoformans, A. fumigatus). The MIC was determined based on visible growth inhibition compared with the control. All experiments were performed in duplicate. […]

[2] = system: C. albicans G5; assay: microbe, parasite or virus in culture; type: cell-based; details: Candida albicans, G5
Source text: as §1, §2, §3, §4, §5

[3] = system: C. parapsilosis CP001; assay: Microbroth dilution MIC80; type: cell-based, Candida parapsilosis; details: Lodderomyces parapsilosis, CP001
Source text: as §1, §2, §3, §4, §5

[4] = system: human bronchial epithelial cell line 16HBE; assay: Cytotoxicity testing (MTT); type: cell-based; details: ratio of IC50 against 16HBE to MIC80 against C. albicans SC5314
Experimental: (§6) h (for C. albicans, C. krusei, C. tropicalis, C. parapsilosis) or 48 h (for C. neoformans, A. fumigatus). The MIC was determined based on visible growth inhibition compared with the control. All experiments were performed in duplicate.
(§7) Cytotoxicity testing. The cell lines HK2 and 16HBE were used to evaluate the cytotoxicity of 19ak, 19k and 19t. Cells in DMEM containing 10% fetal bovine serum (Gibco) were seeded in 96-well tissue culture plates at a cell density of 1 × 10^4 cells/mL and incubated for 24 h to allow adhesion. The supernatant was then replaced with fresh DMEM containing various concentrations of 19ak, 19k and 19t. The plates were subsequently incubated for an additional 48 h at 37°C with 5% CO2, followed by the addition of 10 μL of MTT solution to each well and incubation at 37°C for 4 h.
(§8) The effects of the compounds on cell proliferation were detected by measuring the absorbance at 570 nm in a microplate reader (BioTek, VT, USA). Three independent experiments were conducted. […]

[5] = Cytotoxicity testing (MTT); type: cell-based, human; details: human, 48 h, MTT
Experimental: as §6, §7, §8

[6] = system: human renal epithelial cell line HK2; assay: Cytotoxicity testing (MTT); type: cell-based; details: ratio of IC50 against HK2 to MIC80 against C. albicans SC5314
Experimental: as §6, §7, §8

[7] = system: C. krusei CK1; assay: Microbroth dilution MIC80; type: cell-based, Candida krusei; details: Pichia kudriavzevii, CK1
Source text: as §1, §2, §3, §4, §5

[8] = system: C. albicans SC5314; assay: Minimal fungicidal concentration (MFC); type: cell-based; details: Candida albicans, read-out: MFC against C. albicans SC5314
[9] = system: A. fumigatus AF293; assay: Antifungal susceptibility testing, microbroth dilution MIC; type: cell-based; details: Aspergillus fumigatus, read-out: MIC (μg/mL) against fungi AF293
Source text: as §1, §2
(§9) The zap1 mutant and its complemented strain were kindly provided by Professor Aaron P. Mitchell of Carnegie Mellon University (3). The C. neoformans strains used in this study was kindly donated by Professor Guojian Liao of Southwest University and A. fumigatus strain used in this study was provided by Professor Ling Lu of Nanjing Normal University. […]
as §4, §5

[10] = system: C. neoformans H99; assay: as above; type: cell-based; details: Cryptococcus neoformans, read-out: MIC (μg/mL) against fungi H99
Source text: as §1, §2, §9, §4, §5

[11] = system: C. albicans SC5314; assay: as above; type: cell-based; details: Candida albicans, read-out: MIC (μg/mL) against fungi SC5314
Source text: as §1, §2, §3, §4, §5

[12] = system: C. albicans 24g; assay: Microbroth dilution MIC80; type: cell-based; details: Candida albicans, 24G
Source text: as §1, §2, §3, §4, §5

[13] = system: C. albicans 28A; assay: Microbroth dilution MIC80; type: cell-based; details: Candida albicans, 28A
Source text: as §1, §2, §3, §4, §5

[14] = system: C. albicans CA3; assay: Microbroth dilution MIC80; type: cell-based; details: Candida albicans, CA3
Source text: as §1, §2, §3, §4, §5

[15] = system: C. albicans DSY654; assay: Microbroth dilution MIC80; type: cell-based; details: Candida albicans
Source text: as §1, §2, §3, §4, §5

[16] = system: C. albicans CA1; assay: Microbroth dilution MIC80; type: cell-based; details: Candida albicans, CA1
Source text: as §1, §2, §3, §4, §5

[17] = system: C. albicans 11f; assay: Microbroth dilution MIC80; type: cell-based; details: Candida albicans, 11F
Source text: as §1, §2, §3, §4, §5

[18] = system: C. albicans 28D; assay: Microbroth dilution MIC80; type: cell-based; details: Candida albicans, 28D
Source text: as §1, §2, §3, §4, §5

[19] = system: C. albicans F5; assay: Microbroth dilution MIC80; type: cell-based; details: Candida albicans, F5
Source text: as §1, §2, §3, §4, §5

[20] = system: C. albicans 11e; assay: Microbroth dilution MIC80; type: cell-based; details: Candida albicans, 11E
Source text: as §1, §2, §3, §4, §5

[21] = system: C. albicans 28I; assay: Microbroth dilution MIC80; type: cell-based; details: Candida albicans, 28I
Source text: as §1, §2, §3, §4, §5

[22] = system: C. albicans YEM13; assay: Microbroth dilution MIC80; type: cell-based; details: Candida albicans
Source text: as §1, §2, §3, §4, §5

[23] = system: C. albicans YEM15; assay: Microbroth dilution MIC80; type: cell-based; details: Candida albicans, YEM15
Source text: as §1, §2, §3, §4, §5

[24] = system: C. tropicalis CT2; assay: Microbroth dilution MIC80; type: cell-based; details: Candida tropicalis, CT2
Source text: as §1, §2, §3, §4, §5

[25] = system: A. fumigatus 1161; assay: Microbroth dilution MIC80; type: cell-based; details: Aspergillus fumigatus, 1161
Source text: as §1, §2, §3, §4, §5

[26] = system: C. albicans CA4; assay: Microbroth dilution MIC80; type: cell-based; details: Candida albicans, CA4
Source text: as §1, §2, §3, §4, §5

[27] = system: C. neoformans 108; assay: Microbroth dilution MIC80; type: cell-based; details: Cryptococcus neoformans, 108
Source text: as §1, §2, §3, §4, §5

[28] = Cytotoxicity testing (MTT); type: cell-based, human; details: human, HepG2 cells (hepatocellular carcinoma cell line)
[29] = system: human hepatocellular carcinoma cell line HepG2; assay: Cytotoxicity testing (MTT); type: cell-based; details: ratio of IC50 against HepG2 to MIC80 against C. albicans SC5314
[30] = system: C. albicans SC5314; assay: qPCR of genes associated with ribosome biogenesis; type: cell-based, Candida albicans; details: CPX 0.5 or 2 μg/mL 8 h; DFO 64 µg/mL 6 h; TPEN 0.05 or 0.2 μg/mL 6 h
Experimental: Determination of SOD activity. SOD activity was measured using the Superoxide Dismutase Activity Assay Kit (Njjcbio, Nanjing, China) following the manufacturer's instructions. An overnight culture of C. albicans SC5314 was adjusted to 1 × 10^7 cells/mL with RPMI1640 medium and treated with 19ak at a final concentration of 0, 0.125, 0.25, 0.5, or 1 μg/mL for 6 h. After collection by centrifugation, the cells were broken by glass beads in extraction buffer and centrifuged at 4°C. The absorbance of the supernatant of each sample was measured with a microplate reader at450 nm.
Determination of catalase (CAT) activity. CAT activity was measured by using a Catalase Assay Kit (Solarbio, Beijing, China) following the manufacturer's instructions. An overnight culture of C. albicans SC5314 was adjusted to 1 × 10^6 cells/mL with RPMI1640 medium and treated as described above for SOD activity.
The decomposition of H2O2 is directly accompanied by a decrease in absorbance at 240 nm, and the difference in absorbance per unit time (ΔA240) is a measure of […]
Quantitative real-time polymerase chain reaction (qPCR) analysis. C. albicans SC5314 cells (1 × 10^6 cells/mL) were incubated with or without 19ak (0.5,2 […]
Total RNA was extracted using the hot phenol method, and the RNA quality was analyzed using a spectrophotometer (Eppendorf, Hamburg, Germany). The RNA was converted to cDNA using a cDNA Reverse
Transcription kit (Accurate Biotechnology, Hunan, China). PCR detection based on SYBR Green was performed on an Eppendorf real-time PCR system (Eppendorf, […]
Drug resistance study. Drug resistance studies were carried out by repeatedly treating C. albicans with an antifungal agent followed by MIC determination using […]

[31] = AF293, standard strain of A. fumigatus, 48 h
[32] = H99, C. neoformans wild-type strain, 48 h
[33] = SC5314, C. albicans wild-type strain, RPMI1640, 35°C, 24 h

Compound: S=C(N/N=C/c1ccc(Br)cn1)Nc1ccc(Br)cc1 [Compound 19k]
- MIC80 [1]: 2 µg/mL (≈ 4.83 µM)
- MIC80 [2]: 4 µg/mL (≈ 9.66 µM)
- MIC80 [3]: 2 µg/mL (≈ 4.83 µM)
- Selectivity index 16HBE [4]: 36.43
- IC50 at 48 h ([5]; 16HBE cells (bronchial epithelial cell line), 16HBE cells): 36.4 µg/mL (≈ 88 µM)
- IC50 at 48 h ([5]; HK2 cells (renal epithelial cell line), HK2 cells): 63.9 µg/mL (≈ 154 µM)
- Selectivity index HK2 [6]: 63.88
- MIC80 [7]: 4 µg/mL (≈ 9.66 µM)
- MFC [8]: > 64 µg/mL
- MIC [9, 31]: 8 µg/mL (≈ 19.3 µM)
- MIC [10, 32]: 0.031 µg/mL (≈ 0.0749 µM)
- MIC [11, 33]: 1 µg/mL (≈ 2.41 µM)
- MIC80 [12]: 1 µg/mL (≈ 2.41 µM)
- MIC80 [13]: 2 µg/mL (≈ 4.83 µM)
- MIC80 [14]: 1 µg/mL (≈ 2.41 µM)
- MIC80 [15]: 1 µg/mL (≈ 2.41 µM)
- MIC80 [16]: 1 µg/mL (≈ 2.41 µM)
- MIC80 [17]: 2 µg/mL (≈ 4.83 µM)
- MIC80 [18]: 1 µg/mL (≈ 2.41 µM)
- MIC80 [19]: 1 µg/mL (≈ 2.41 µM)
- MIC80 [20]: 2 µg/mL (≈ 4.83 µM)
- MIC80 [21]: 1 µg/mL (≈ 2.41 µM)
- MIC80 [22]: 2 µg/mL (≈ 4.83 µM)
- MIC80 [23]: 2 µg/mL (≈ 4.83 µM)
- MIC80 [24]: 2 µg/mL (≈ 4.83 µM)
- MIC80 [25]: 0.5 µg/mL (≈ 1.21 µM)
- MIC80 [26]: 0.5 µg/mL (≈ 1.21 µM)
- MIC80 [27]: 0.031 µg/mL (≈ 0.0749 µM)
- IC50 [28]: 28 µg/mL (≈ 67.6 µM)
- Selectivity index HepG2 [29]: 28

- MIC [9, 31]: 32 µg/mL (≈ 164 µM)
- MIC [10, 32]: 4 µg/mL (≈ 20.5 µM)
- MIC [11, 33]: 32 µg/mL (≈ 164 µM)
Compound: NC(=S)NN=Cc1ncccc1N [Triapine, 3-aminopyridine-2-carboxaldehyde thiosemicarbazone, reference compound]

Compound: C/C(=N\NC(=S)Nc1ccccc1)c1ccccn1 [Compound 19ac]
- MIC ([9]; AF293, 48 h): 16 µg/mL (≈ 59.2 µM)
- MIC ([10]; H99, 48 h): 0.25 µg/mL (≈ 0.925 µM)
- MIC ([11]; SC5314, 24 h): 2 µg/mL (≈ 7.4 µM)

Compound: COc1ccc(NC(=S)N/N=C(\C)c2ccccn2)cc1 [Compound 19s]
- MIC ([9]; AF293, 48 h): 8 µg/mL (≈ 26.6 µM)
- MIC ([10]; H99, 48 h): 0.25 µg/mL (≈ 0.832 µM)
- MIC ([11]; SC5314, 24 h): 2 µg/mL (≈ 6.66 µM)

Compound: C/C(=N\NC(=S)Nc1cccc(Br)c1)c1ccccn1 [Compound 19q]
- MIC ([9]; AF293, 48 h): 1 µg/mL (≈ 2.86 µM)
- MIC ([10]; H99, 48 h): 0.25 µg/mL (≈ 0.716 µM)
- MIC ([11]; SC5314, 24 h): 0.5 µg/mL (≈ 1.43 µM)

Compound: S=C(N/N=C(\c1ccccc1)c1ccccn1)Nc1ccccc1Br [Compound 19x]
- MIC ([9]; AF293, 48 h): 16 µg/mL (≈ 38.9 µM)
- MIC ([10]; H99, 48 h): 0.5 µg/mL (≈ 1.22 µM)
- MIC ([11]; SC5314, 24 h): 1 µg/mL (≈ 2.43 µM)

Compound: Cc1cc(C2CCCCC2)n(O)c(=O)c1 [CPX, ciclopirox olamine]
- Expression of genes associated with ribosome biogenesis (qPCR) [30]: no obvious effect
